From paper PMC10333884, “Large‐scale phosphomimetic screening identifies phospho‐modulated motif‐based protein interactions” (Molecular Systems Biology, 2023)
Values joined by “and” are separate entries in the source; they are usually repeats but may differ in a detail not shown here. Identical values can stand only once. Non-standard residues stand in square brackets, D forms with d. Residues, ends and D or L forms follow the SMILES beside them. pS = N[C@@H](COP(=O)(O)O)C(=O)O

Legend:
GGA1 VHS [1] = target: T1, GGA1 VHS (Homo sapiens, UniProt Q9UJY5); test: Phosphomimetic ProP-PD selection, GGA1 VHS; conditions: phosphomimetic enrichment score of the wild-type/phosphomimetic (E) pair at the phosphosite, PM_HD2 phage selection; positive = phosphomimetic enhances binding; P-value in brackets not taken
T1 construct: GGA1_VHS__Q9UJY5_1_157; GST (cleaved yes); made in house; host or cells: Escherichia coli BL21-Gold(DE3)
T1 sequence (Q9UJY5 1-157): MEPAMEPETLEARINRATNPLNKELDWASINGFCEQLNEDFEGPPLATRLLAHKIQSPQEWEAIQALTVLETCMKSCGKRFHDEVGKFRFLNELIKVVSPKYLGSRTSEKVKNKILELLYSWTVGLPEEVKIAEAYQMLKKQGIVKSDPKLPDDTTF
Protocol: Selections using the PM_HD2 phage library were performed as described previously with minor modification to the original protocol. The corresponding tag protein (either GST or MBP) was first used during negative selections. Selections were run for 4 days. • Bait and tag proteins (10–15 μg in 100 μl PBS) were immobilised in 96‐well MaxiSorb plate (NUNC) o.n. at 4°C. • Escherichia coli OmniMax bacteria were grown in 2YT medium supplemented with tetracycline (100 μg/ml) at 37°C and 200 rpm. • Plates with immobilised bait/tag proteins were blocked with 0.5% BSA in PBS for 1 h at 4°C. • Phage library (10 μl/well) was prepared by diluting 10× with PBS and adding one‐fourth of the volume of PEG/NaCl. For phage precipitation, prepared library was incubated for 10 min on ice followed by centrifugation for 10 min at 10,000 × g at 4°C. […]
Based on the results from phage pool ELISAs, samples from selection Day 3 and 4 were selected for NGS, as described previously (Benz et al, [2022]). • Peptide coding regions were amplified and dual‐barcoded by PCR. […] From the columns, samples were eluted with 30 μl TE (10 mM Tris–HCl, 1 mM EDTA. pH 7.5) buffer and quantified with Quant‐iT PicoGreen dsDNA Assay Kit. • Samples were sequenced on MiSeq (MSC 2.5.0.5/RTA 1.18.54) with a 151 nt (Read1) setup using “Version3” chemistry. […]

GGA1 VHS [2] = target: T1, GGA1 VHS; test: FP displacement assay, GGA1 VHS; assay type: binding; conditions: FP displacement, probe FITC-IGF2R 5 nM, 50 mM sodium phosphate pH 7.4, room temperature; at least three technical replicates; read-out: KD values ± SEM
Protocol: (§1) FP experiments were performed as described previously (Kliche et al, [2021]). Shortly, in order to monitor the binding event, FITC‐labelled peptides were used (excitation 495 nm, emission: 535 nm) and the FP signal was recorded in mP on a SpectraMax iD5 Multi‐Mode Microplate Reader (Molecular Devices) by measuring the emitted light in two angels. The measurements were performed at room temperature and prepared in nonbinding black half area 96‐well microplates (Corning®; 50 μl/well). For measuring direct binding, that is saturation curves, a 1:1 dilution series of protein domain (25 μl/well) was generated in 50 mM sodium phosphate buffer pH 7.4 and the measurement performed with 5 nM FITC‐labelled peptide (25 μl/well). The buffer‐corrected values were subsequently plotted with PRISM and fitted to the quadratic equation (Gianni et al, [2005]).
(§2) The 1:1 dilution series in this experiment was performed with the unlabelled peptide in 50 mM sodium phosphate buffer pH 7.4, so that each well‐contained unlabelled peptide (25 μl) at a certain concentration and pre‐formed complex (25 μl). The KD values of this indirectly monitored binding event were calculated as described previously (Nikolovska‐Coleska et al, [2004]). All measurements were at least in technical triplicates as well as biological duplicates when indicated. An amplitude shift between repeat measurements in the displacement experiments was occasionally observed due to variations in the protein preparations. If that was the case, the “active” protein concentration was back‐calculated according to the quadratic equation from the saturation curves performed in parallel. By comparing the active protein concentrations in the complex between different protein preparations, the amplitude was normalised.

14-3-3 theta = target: T2, 14-3-3 theta (Homo sapiens, UniProt P27348); test: FP displacement assay, 14-3-3 theta; assay type: binding; conditions: probe FITC-2BTP; technical triplicates
T2 construct: GST (cleaved yes); made in house; host or cells: Escherichia coli BL21-Gold(DE3)
T2 sequence (P27348 1-245): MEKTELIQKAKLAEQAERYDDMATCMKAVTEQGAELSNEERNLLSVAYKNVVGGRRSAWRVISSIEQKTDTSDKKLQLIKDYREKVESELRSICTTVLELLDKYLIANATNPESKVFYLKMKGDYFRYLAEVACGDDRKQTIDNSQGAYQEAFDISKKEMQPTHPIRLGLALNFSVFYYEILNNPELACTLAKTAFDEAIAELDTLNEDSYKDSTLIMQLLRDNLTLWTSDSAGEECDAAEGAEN
Protocol: as §1, §2

GGA1 VHS [3] = target: T1, GGA1 VHS; test: ITC, GGA1 VHS; assay type: binding; set-up: Ka: unit not given beside the values
Clathrin NTD [4] = target: T3, Clathrin NTD (Homo sapiens, UniProt Q00610); test: FP displacement assay, clathrin NTD; assay type: binding
T3 construct: GST (cleaved yes); made in house; host or cells: Escherichia coli BL21-Gold(DE3)
T3 sequence (Q00610 1-364): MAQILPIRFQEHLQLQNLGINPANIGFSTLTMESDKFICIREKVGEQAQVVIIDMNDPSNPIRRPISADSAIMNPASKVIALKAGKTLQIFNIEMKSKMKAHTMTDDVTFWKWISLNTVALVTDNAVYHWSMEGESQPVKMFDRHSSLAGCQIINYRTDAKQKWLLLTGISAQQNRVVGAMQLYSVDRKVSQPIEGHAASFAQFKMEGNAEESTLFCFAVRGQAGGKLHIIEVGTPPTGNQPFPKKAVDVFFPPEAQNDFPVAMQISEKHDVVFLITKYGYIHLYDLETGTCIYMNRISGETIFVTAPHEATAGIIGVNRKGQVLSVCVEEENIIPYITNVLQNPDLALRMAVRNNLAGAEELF
Protocol: as §1, §2

Clathrin NTD [5] = target: T3, Clathrin NTD; test: ITC, clathrin NTD; assay type: binding; conditions: ITC (iTC200), 50 mM sodium phosphate pH 7.4, 1 mM DTT; average of the runs, at least technical triplicates

Compound	PES (GGA1 VHS [1])	Kd (GGA1 VHS [2]) [µM]	binding in FP displacement experiment (14-3-3 theta)	Kd (Clathrin NTD [4]) [µM]	Kd (Clathrin NTD [5])	also measured
CC[C@H](C)[C@H](NC(=O)[C@H](CC(C)C)NC(=O)[C@H](CC(N)=O)NC(=O)CNC(=O)CNC(=O)[C@H](Cc1ccc(O)cc1)NC(C)=O)C(=O)N[C@H](C(=O)N[C@@H](Cc1ccccc1)C(=O)N[C@@H](CO)C(=O)N1CCC[C@H]1C(=O)N[C@@H](CC(C)C)C(=O)N[C@@H](CCC(N)=O)C(=O)N1CCC[C@H]1C(=O)NCC(=O)N[C@@H](CCC(=O)O)C(=O)N[C@@H](Cc1ccccc1)C(N)=O)[C@@H](C)O [HURP832–846 wt] (Ac-YGGNLITFSPLQPGEF-NH2)				134 ± 16	266 µM	
CC[C@H](C)[C@H](NC(=O)[C@H](CC(C)C)NC(=O)[C@H](CC(N)=O)NC(=O)CNC(=O)CNC(=O)[C@H](Cc1ccc(O)cc1)NC(C)=O)C(=O)N[C@H](C(=O)N[C@@H](Cc1ccccc1)C(=O)N[C@@H](COP(=O)(O)O)C(=O)N1CCC[C@H]1C(=O)N[C@@H](CC(C)C)C(=O)N[C@@H](CCC(N)=O)C(=O)N1CCC[C@H]1C(=O)NCC(=O)N[C@@H](CCC(=O)O)C(=O)N[C@@H](Cc1ccccc1)C(N)=O)[C@@H](C)O [HURP832–846 pS] (Ac-YGGNLITF[pS]PLQPGEF-NH2)				< 3	5 µM and 3 µM	IC50 (Clathrin NTD [4]; Fig 6A, clathrin NTD, FP displacement, two to three technical replicates per protein preparation, 2 independent preparations, read-out: IC50 values of displacement curves, with SEM): 11 ± 4 µM
H3COC-DMYALTRGSS(E/pS)LADQRK-NH2 [pS375 TOM1_366–382, phosphorylated TOM1 366-382 peptide]			weak affinity			
CC[C@H](C)[C@H](NC(=O)[C@H](CC(C)C)NC(=O)[C@H](CC(N)=O)NC(=O)CNC(=O)CNC(=O)[C@H](Cc1ccc(O)cc1)NC(C)=O)C(=O)N[C@H](C(=O)N[C@@H](Cc1ccccc1)C(=O)N[C@@H](CCC(=O)O)C(=O)N1CCC[C@H]1C(=O)N[C@@H](CC(C)C)C(=O)N[C@@H](CCC(N)=O)C(=O)N1CCC[C@H]1C(=O)NCC(=O)N[C@@H](CCC(=O)O)C(=O)N[C@@H](Cc1ccccc1)C(N)=O)[C@@H](C)O [HURP832–846 E] (Ac-YGGNLITFEPLQPGEF-NH2)				23 ± 2	22 µM	

Further lines, with some results ahead:

PES (GGA1 VHS [1])	Kd (GGA1 VHS [2]) [µM]	binding in FP displacement experiment (14-3-3 theta)	Compound	Kd (Clathrin NTD [4]) [µM]	Kd (Clathrin NTD [5])	also measured
3.6 (0.023)	450 ± 50		CC(=O)N[C@@H](CC(=O)O)C(=O)N[C@@H](CC(C)C)C(=O)N[C@@H](CC(C)C)C(=O)N[C@@H](CCC(=O)O)C(=O)N[C@@H](CO)C(=O)N1CCC[C@H]1C(=O)N[C@@H](CC(=O)O)C(=O)N[C@H](C(=O)NCC(=O)N[C@@H](CC(C)C)C(=O)N[C@@H](CC(C)C)C(=O)N[C@@H](CCCCN)C(=O)N[C@@H](CC(C)C)C(=O)N[C@@H](C)C(=O)N[C@@H](CO)C(=O)N[C@@H](Cc1ccc(O)cc1)C(N)=O)C(C)C [JUN59–73 E] (Ac-DLLESPDVGLLKLASY-NH2)			
		no binding	H3COC-DMYALTRGSS(E/pS)LADQRK-NH2 [S375E TOM1_366–382, phosphomimetic TOM1 366-382 peptide]			
4.9 (0.009)	1000		CC[C@H](C)[C@H](NC(=O)[C@H](CC(=O)O)NC(=O)[C@H](CC(=O)O)NC(=O)[C@H](CO)NC(=O)[C@@H](NC(=O)[C@@H]1CCCN1C(=O)[C@H](CO)NC(=O)[C@H](CCCCN)NC(=O)[C@H](Cc1ccc(O)cc1)NC(C)=O)[C@@H](C)O)C(=O)N[C@@H](CCC(=O)O)C(=O)N[C@@H](CC(C)C)C(=O)N[C@@H](CC(C)C)C(=O)N[C@@H](Cc1c[nH]cn1)C(=O)N[C@@H](CCC(=O)O)C(=O)N[C@@H](CO)C(=O)N[C@@H](CCC(N)=O)C(=O)N[C@@H](CO)C(N)=O [RNF11_6–21 E] (Ac-YKSPTSDDIELLHESQS-NH2)			Kd (GGA1 VHS [3]; ITC (iTC200), 50 mM sodium phosphate pH 7.4, 1 mM DTT, average of the runs, technical duplicates): 101 µM; Ka (GGA1 VHS [3]; ITC single run: date 200220, injection 1): 10600; Ka (GGA1 VHS [3]; ITC single run: date 200220, injection 2): 9350
9 (0.00012)	199 ± 4		CC(=O)N[C@@H](CCC(=O)O)C(=O)N[C@H](C(=O)N[C@@H](Cc1ccc(O)cc1)C(=O)N[C@@H](Cc1ccc(O)cc1)C(=O)N[C@@H](CC(C)C)C(=O)N[C@@H](CO)C(=O)N[C@@H](CC(=O)O)C(=O)N[C@@H](CCC(=O)O)C(=O)N1CCC[C@H]1C(=O)N[C@@H](CC(C)C)C(=O)N[C@@H](CC(C)C)C(=O)NCC(=O)N1CCC[C@H]1C(=O)N1CCC[C@H]1C(=O)N[C@H](C(=O)NCC(N)=O)C(C)C)[C@@H](C)O [GTSE1_145–160 E] (Ac-ETYYLSDEPLLGPPVG-NH2)			
		no binding	H3COC-DMYALTRGSS(E/pS)LADQRK-NH2 [S375 TOM1_366–382, wild-type TOM1 366-382 (F368Y) peptide]			
